Measured values from patent publication US8735414B2 (priority 2009, dated 2014).

Key:
[1] = tested on: bicistronic HCV replicon (replicon RNA, GenBank Accession No. AJ242654); assay: HCV Replicon Assay; format: cell-based; details: Hepatitis C virus, 72 h, read-out: Replicon IC50

| SMILES | melting point | IC50 [1] |
| --- | --- | --- |
| COc1cc2c(cc1F)c(C#N)c(-c1ccc(S(=O)(=O)NC(C)C)cn1)n2C1CCC1 [compound 101, 6-(3-cyano-1-cyclobutyl-5-fluoro-6-methoxy-1H-indol-2-yl)-N-(propan-2-yl)pyridine-3-sulfonamide] | 234 to 237 °C | < 0.5 µM |
| Cc1cc2c(cc1F)c(C#N)c(-c1ccc(S(=O)(=O)NC3(C)CC3)cn1)n2C1CCCC1 [compound 645, 6-(3-cyano-1-cyclopentyl-5-fluoro-6-methyl-1H-indol-2-yl)-N-(1-methylcyclopropyl)pyridine-3-sulfonamide] | 208 to 209 °C | < 0.5 µM |
| COc1ccc2c(C#N)c(-c3ccc(NS(=O)(=O)C(C)(C)C)nn3)n(C3CCC3)c2c1 [compound 278, N-[6-(3-cyano-1-cyclobutyl-6-methoxy-1H-indol-2-yl)pyridazin-3-yl]-2-methylpropane-2-sulfonamide] | 218 to 220 °C | 0.5 to 2 µM |
| Cc1cnc(-n2c(-c3ccc(S(=O)(=O)N[C@@H](C)C(F)(F)F)cn3)c(C(N)=O)c3cc(F)c(C)cc32)cn1 [compound 904, 5-fluoro-6-methyl-1-(5-methylpyrazin-2-yl)-2-(5-{[(2S)-1,1,1-trifluoropropan-2-yl]sulfamoyl}pyridin-2-yl)-1H-indole-3-carboxamide] | 202 to 208 °C | < 0.5 µM |
| N#Cc1c(-c2ccc(S(=O)(=O)NC3(C(F)(F)F)CC3)cn2)n(C2CCC2)c2cc(OC(F)F)c(F)cc12 [compound 808, 6-[3-cyano-1-cyclobutyl-6-(difluoromethoxy)-5-fluoro-1H-indol-2-yl]-N-[1-(trifluoromethyl)cyclopropyl]pyridine-3-sulfonamide] | 169 to 171 °C | < 0.5 µM |
| N#Cc1c(-c2ccc(S(=O)(=O)NC(CF)CF)cn2)n(-c2ccccc2)c2cc(OC(F)F)ccc12 [compound 226, 6-[3-cyano-6-(difluoromethoxy)-1-phenyl-1H-indol-2-yl]-N-(1,3-difluoropropan-2-yl)pyridine-3-sulfonamide] | 200 to 202 °C | < 0.5 µM |
| C[C@H](NS(=O)(=O)c1ccc(-c2c(C(N)=O)c3cc(Cl)ccc3n2C2CCC2)nc1)C(F)(F)F [compound 996, 5-chloro-1-cyclobutyl-2-(5-{[(2S)-1,1,1-trifluoropropan-2-yl]sulfamoyl}pyridin-2-yl)-1H-indole-3-carboxamide] | 244 to 245 °C | < 0.5 µM |
| CCc1cc2c(cc1F)c(C#N)c(-c1ccc(S(=O)(=O)NC(C)(C)C)cn1)n2-c1ncccc1F [compound 900, N-tert-butyl-6-[3-cyano-6-ethyl-5-fluoro-1-(3-fluoropyridin-2-yl)-1H-indol-2-yl]pyridine-3-sulfonamide] | 200 to 203 °C | 0.5 to 2 µM |
| Cc1cc2c(cc1F)c(C#N)c(-c1ccc(S(=O)(=O)N[C@@H](C)C(F)(F)F)cn1)n2-c1ccc(C#N)cn1 [compound 743, 6-[3-cyano-1-(5-cyanopyridin-2-yl)-5-fluoro-6-methyl-1H-indol-2-yl]-N-[(2S)-1,1,1-trifluoropropan-2-yl]pyridine-3-sulfonamide] | 276 to 277 °C | < 0.5 µM |
| N#Cc1c(-c2ncc(S(=O)(=O)NC(CF)CF)cn2)n(C2CCCC2)c2cc(F)ccc12 [compound 166, 2-(3-cyano-1-cyclopentyl-6-fluoro-1H-indol-2-yl)-N-(1,3-difluoropropan-2-yl)pyrimidine-5-sulfonamide] | 167 to 169 °C | < 0.5 µM |
| Cc1ccc2c(c1F)c(C#N)c(-c1ccc(S(=O)(=O)NC(C)(C)C(F)(F)F)cn1)n2C1CCCC1 [compound 614, 6-(3-cyano-1-cyclopentyl-4-fluoro-5-methyl-1H-indol-2-yl)-N-(1,1,1-trifluoro-2-methylpropan-2-yl)pyridine-3-sulfonamide] | 200 to 205 °C | 0.5 to 2 µM |
| Cc1cc2c(cc1F)c(C#N)c(-c1ccc(S(=O)(=O)N[C@@H](C)C(F)(F)F)cn1)n2-c1ccc(C(F)(F)F)cn1 [compound 740, 6-{3-cyano-5-fluoro-6-methyl-1-[5-(trifluoromethyl)pyridin-2-yl]-1H-indol-2-yl}-N-[(2S)-1,1,1-trifluoropropan-2-yl]pyridine-3-sulfonamide] | 253 to 255 °C | < 0.5 µM |
| CCc1cc2c(cc1F)c(C#N)c(-c1ccc(S(=O)(=O)N[C@@H](C)C(F)(F)F)cn1)n2-c1cccc(C(F)(F)F)c1 [compound 1011, 6-{3-cyano-6-ethyl-5-fluoro-1-[3-(trifluoromethyl)phenyl]-1H-indol-2-yl}-N-[(2S)-1,1,1-trifluoropropan-2-yl]pyridine-3-sulfonamide] | 240 to 245 °C | 0.5 to 2 µM |
| N#Cc1c(-c2ccc(S(=O)(=O)NC(CF)CF)cn2)n(-c2ccccc2)c2ccc(F)cc12 [compound 113, 6-(3-cyano-5-fluoro-1-phenyl-1H-indol-2-yl)-N-(1,3-difluoropropan-2-yl)pyridine-3-sulfonamide] | 165 to 168 °C | < 0.5 µM |
| C[C@H](NS(=O)(=O)c1ccc(-c2c(C#N)c3cc(F)c(OC(F)F)cc3n2C2CCCC2)nc1)C(F)(F)F [compound 574, 6-[3-cyano-1-cyclopentyl-6-(difluoromethoxy)-5-fluoro-1H-indol-2-yl]-N-[(2S)-1,1,1-trifluoropropan-2-yl]pyridine-3-sulfonamide] | 181 to 184 °C | < 0.5 µM |
| N#Cc1c(-c2ccc(S(=O)(=O)NC(CF)CF)cn2)n(C2CCCCC2)c2cc(OC(F)(F)F)ccc12 [compound 105, 6-[3-cyano-1-cyclohexyl-6-(trifluoromethoxy)-1H-indol-2-yl]-N-(1,3-difluoropropan-2-yl)pyridine-3-sulfonamide] | 146 to 148 °C | < 0.5 µM |
| N#Cc1c(-c2ncc(S(=O)(=O)NC(CF)CF)cn2)n(CC2CC2)c2cc(C3CC3)ccc12 [compound 344, 2-[3-cyano-6-cyclopropyl-1-(cyclopropylmethyl)-1H-indol-2-yl]-N-(1,3-difluoropropan-2-yl)pyrimidine-5-sulfonamide] | 205 to 210 °C | < 0.5 µM |
| Cc1cc2c(C#N)c(-c3ncc(S(=O)(=O)NC(C)C)cn3)n(C3CCCC3)c2cc1Cl [compound 523, 2-(6-chloro-3-cyano-1-cyclopentyl-5-methyl-1H-indol-2-yl)-N-(propan-2-yl)pyrimidine-5-sulfonamide] | 216 to 216.5 °C | 0.5 to 2 µM |
| Cc1c(F)cc2c(c1F)c(C#N)c(-c1ccc(S(=O)(=O)NC(CF)CF)cn1)n2C1CCCC1 [compound 558, 6-(3-cyano-1-cyclopentyl-4,6-difluoro-5-methyl-1H-indol-2-yl)-N-(1,3-difluoropropan-2-yl)pyridine-3-sulfonamide] | 214 to 219 °C | < 0.5 µM |
| CCc1cc2c(cc1F)c(C#N)c(-c1ccc(S(=O)(=O)N[C@@H](C)C(F)(F)F)cn1)n2-c1ccncc1 [compound 974, 6-[3-cyano-6-ethyl-5-fluoro-1-(pyridin-4-yl)-1H-indol-2-yl]-N-[(2S)-1,1,1-trifluoropropan-2-yl]pyridine-3-sulfonamide] | 209 to 215 °C | < 0.5 µM |
| N#Cc1c(-c2ncc(S(=O)(=O)NC(CF)CF)cn2)n(C2CCCC2)c2cc(OC(F)(F)F)ccc12 [compound 178, 2-[3-cyano-1-cyclopentyl-6-(trifluoromethoxy)-1H-indol-2-yl]-N-(1,3-difluoropropan-2-yl)pyrimidine-5-sulfonamide] | 181 to 187 °C | < 0.5 µM |
| N#Cc1c(-c2ccc(S(=O)(=O)NC(CF)CF)cn2)n(C2CC2)c2cc(OC(F)F)ccc12 [compound 42, 6-[3-cyano-1-cyclopropyl-6-(difluoromethoxy)-1H-indol-2-yl]-N-(1,3-difluoropropan-2-yl)pyridine-3-sulfonamide] | 219 to 220 °C | < 0.5 µM |
| CCc1cc2c(cc1F)c(C#N)c(-c1ccc(S(=O)(=O)NC(C)(C)C)cn1)n2C1CCC1 [compound 764, N-tert-butyl-6-(3-cyano-1-cyclobutyl-6-ethyl-5-fluoro-1H-indol-2-yl)pyridine-3-sulfonamide] | 186 to 188 °C | < 0.5 µM |
| C[C@@H](C1CC1)n1c(-c2ccc(NS(=O)(=O)C(C)(C)C)nc2)c(C(N)=O)c2cc(F)c(OC(F)F)cc21 [compound 1081, 2-{6-[(tert-butylsulfonyl)amino]pyridin-3-yl}-1-[(1S)-1-cyclopropylethyl]-6-(difluoromethoxy)-5-fluoro-1H-indole-3-carboxamide] | 239 to 241 °C | < 0.5 µM |
| CCc1cc2c(cc1F)c(C#N)c(-c1ccc(S(=O)(=O)N[C@@H](C)C(F)(F)F)cn1)n2-c1cccc(F)n1 [compound 930, 6-[3-cyano-6-ethyl-5-fluoro-1-(6-fluoropyridin-2-yl)-1H-indol-2-yl]-N-[(2S)-1,1,1-trifluoropropan-2-yl]pyridine-3-sulfonamide] | 205 to 211 °C | < 0.5 µM |
| C[C@H](NS(=O)(=O)c1ccc(-c2c(C(N)=O)c3cc(F)c(OC(F)F)cc3n2C2CCC2)nc1)C(F)(F)F [compound 703, 1-cyclobutyl-6-(difluoromethoxy)-5-fluoro-2-(5-{[(2S)-1,1,1-trifluoropropan-2-yl]sulfamoyl}pyridin-2-yl)-1H-indole-3-carboxamide] | 184 to 186 °C | < 0.5 µM |
| CCc1ccc2c(c1)c(C#N)c(-c1ccc(S(=O)(=O)N[C@@H](C)C(F)(F)F)cn1)n2C1CCC1 [compound 339, 6-(3-cyano-1-cyclobutyl-5-ethyl-1H-indol-2-yl)-N-[(2S)-1,1,1-trifluoropropan-2-yl]pyridine-3-sulfonamide] | 168 to 169 °C | < 0.5 µM |
| Cc1cc2c(cc1F)c(C#N)c(-c1ccc(S(=O)(=O)N[C@@H](C)C(F)(F)F)cn1)n2-c1sccc1C [compound 1000, 6-[3-cyano-5-fluoro-6-methyl-1-(3-methylthiophen-2-yl)-1H-indol-2-yl]-N-[(2S)-1,1,1-trifluoropropan-2-yl]pyridine-3-sulfonamide] | 197 to 203.8 °C | < 0.5 µM |
